Measured values: ChEMBL document CHEMBL4270672, “Synthesis and Biological Evaluation of Fused Tricyclic Heterocycle Piperazine (Piperidine) Derivatives As Potential Multireceptor Atypical Antipsychotics” (J Med Chem, 2018)
The source made the active and inactive calls. No cut-off for these calls is given here.

Tests used:
Histamine H1 receptor = Histamine H1 receptor (Cavia porcellus, UniProt P31389)
Description: Displacement of [3H]-mepyramine from histamine H1 receptor in guinea pig cerebellum homogenates incubated for 60 mins by liquid scintillation counting

[1] = molecular target: T1, Adrenergic receptor alpha-1 (Rattus norvegicus, UniProt P15823+P23944+P43140)
T1 sequence (P15823 whole entry): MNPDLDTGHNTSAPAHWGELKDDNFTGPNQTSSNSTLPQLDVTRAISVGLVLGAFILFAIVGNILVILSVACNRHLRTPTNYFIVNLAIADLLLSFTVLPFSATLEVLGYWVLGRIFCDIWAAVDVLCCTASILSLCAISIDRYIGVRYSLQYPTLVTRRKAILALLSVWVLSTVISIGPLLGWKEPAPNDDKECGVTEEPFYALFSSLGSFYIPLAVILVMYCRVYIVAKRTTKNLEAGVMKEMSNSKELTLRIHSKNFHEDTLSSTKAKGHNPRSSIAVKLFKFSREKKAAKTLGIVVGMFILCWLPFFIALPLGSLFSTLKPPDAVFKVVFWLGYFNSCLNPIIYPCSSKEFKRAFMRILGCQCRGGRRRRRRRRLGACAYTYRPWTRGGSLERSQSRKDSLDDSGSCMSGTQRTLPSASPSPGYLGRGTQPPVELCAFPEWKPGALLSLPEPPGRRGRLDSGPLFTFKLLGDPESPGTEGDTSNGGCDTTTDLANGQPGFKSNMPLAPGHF
T1 sequence (P23944 whole entry): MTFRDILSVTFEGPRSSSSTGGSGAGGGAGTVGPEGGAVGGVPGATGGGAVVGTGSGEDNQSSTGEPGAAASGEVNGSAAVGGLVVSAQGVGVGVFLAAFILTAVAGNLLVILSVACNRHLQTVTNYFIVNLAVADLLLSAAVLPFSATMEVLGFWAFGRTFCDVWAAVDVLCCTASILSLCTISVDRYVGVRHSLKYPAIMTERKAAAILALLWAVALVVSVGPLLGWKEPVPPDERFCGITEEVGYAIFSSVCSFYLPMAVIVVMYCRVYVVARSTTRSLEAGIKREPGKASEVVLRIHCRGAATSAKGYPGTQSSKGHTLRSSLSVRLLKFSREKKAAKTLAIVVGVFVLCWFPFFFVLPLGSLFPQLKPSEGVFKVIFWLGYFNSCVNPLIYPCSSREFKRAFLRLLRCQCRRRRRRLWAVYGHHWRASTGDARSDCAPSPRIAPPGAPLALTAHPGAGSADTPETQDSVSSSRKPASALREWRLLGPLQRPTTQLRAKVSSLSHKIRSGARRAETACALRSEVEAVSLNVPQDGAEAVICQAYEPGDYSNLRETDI
T1 sequence (P43140 whole entry): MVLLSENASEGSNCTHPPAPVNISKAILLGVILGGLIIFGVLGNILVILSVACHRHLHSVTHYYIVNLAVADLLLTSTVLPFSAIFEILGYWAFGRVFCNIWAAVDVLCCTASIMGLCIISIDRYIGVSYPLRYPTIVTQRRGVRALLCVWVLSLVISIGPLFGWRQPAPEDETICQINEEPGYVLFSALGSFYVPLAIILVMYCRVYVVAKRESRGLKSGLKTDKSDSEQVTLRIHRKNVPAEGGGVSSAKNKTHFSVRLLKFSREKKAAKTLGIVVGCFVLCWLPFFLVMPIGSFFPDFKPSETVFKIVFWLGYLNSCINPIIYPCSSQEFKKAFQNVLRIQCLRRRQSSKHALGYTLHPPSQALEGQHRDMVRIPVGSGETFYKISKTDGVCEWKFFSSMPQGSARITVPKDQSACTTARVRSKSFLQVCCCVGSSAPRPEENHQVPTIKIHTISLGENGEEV
Description: Displacement of [3H]-prazosin from alpha-1 adrenergic receptor in rat cerebral cortex homogenates incubated for 60 mins by liquid scintillation counting

[2] = molecular target: T2, 5-hydroxytryptamine receptor 2C (Rattus norvegicus, UniProt P08909)
T2 sequence (P08909 whole entry): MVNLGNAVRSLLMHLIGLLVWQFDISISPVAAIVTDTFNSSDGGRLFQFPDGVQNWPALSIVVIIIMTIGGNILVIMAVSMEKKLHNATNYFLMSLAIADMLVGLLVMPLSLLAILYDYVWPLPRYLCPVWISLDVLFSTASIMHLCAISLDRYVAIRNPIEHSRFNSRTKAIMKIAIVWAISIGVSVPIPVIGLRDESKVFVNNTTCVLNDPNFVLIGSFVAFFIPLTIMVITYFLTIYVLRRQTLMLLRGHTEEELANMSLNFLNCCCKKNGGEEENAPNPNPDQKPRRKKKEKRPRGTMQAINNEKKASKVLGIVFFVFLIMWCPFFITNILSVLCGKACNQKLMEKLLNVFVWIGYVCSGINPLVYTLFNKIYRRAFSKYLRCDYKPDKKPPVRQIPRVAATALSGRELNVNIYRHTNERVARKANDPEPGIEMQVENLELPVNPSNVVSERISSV

[3] = molecular target: T3, 5-hydroxytryptamine receptor 6 (Homo sapiens, UniProt P50406); assay: biochemical
D(3) dopamine receptor = D(3) dopamine receptor (Rattus norvegicus, UniProt P19020)
[4] = molecular target: 5-hydroxytryptamine receptor 2A (Rattus norvegicus, UniProt P14842); assay: Displacement of [3H]-ketanserine from serotonin 5-HT2A receptor in rat brain cortex homogenates incubated for 30 mins by liquid scintillation counting
D(2) dopamine receptor [5] = molecular target: D(2) dopamine receptor (Rattus norvegicus, UniProt P61169)
[6] = molecular target: T4, 5-hydroxytryptamine receptor 1A (Rattus norvegicus, UniProt P19327)
T4 sequence (P19327 whole entry): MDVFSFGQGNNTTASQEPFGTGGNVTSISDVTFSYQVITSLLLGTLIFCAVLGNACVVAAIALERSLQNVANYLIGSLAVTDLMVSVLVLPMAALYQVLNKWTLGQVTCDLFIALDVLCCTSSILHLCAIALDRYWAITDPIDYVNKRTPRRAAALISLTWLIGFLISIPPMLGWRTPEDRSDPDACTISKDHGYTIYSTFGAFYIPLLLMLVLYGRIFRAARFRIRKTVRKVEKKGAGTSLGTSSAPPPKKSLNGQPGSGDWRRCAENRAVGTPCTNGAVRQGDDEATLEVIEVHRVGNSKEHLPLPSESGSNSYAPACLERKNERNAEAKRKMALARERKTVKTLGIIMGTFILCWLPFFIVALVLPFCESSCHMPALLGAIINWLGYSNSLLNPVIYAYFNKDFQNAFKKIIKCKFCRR

[7] = molecular target: 5-hydroxytryptamine receptor 2A (Homo sapiens, UniProt P28223); assay: Agonist activity at serotonin 5-HT2A receptor (unknown origin) expressed in HEK293 cells assessed as induction of calcium flux at 10 uM after 60 mins by calcium 4-dye based FLIPR assay relative to control; type: functional, cell-based
[8] = molecular target: T3, 5-hydroxytryptamine receptor 6; assay: Agonist activity at serotonin 5-HT6 receptor (unknown origin) expressed in HEK293 cells assessed as induction of calcium flux at 10 uM after 60 mins by calcium 4-dye based FLIPR assay relative to control; type: functional, cell-based
[9] = molecular target: Voltage-gated inwardly rectifying potassium channel KCNH2 (Homo sapiens, UniProt Q12809)
Description: Inhibition of human ERG expressed in HEK293 cells at -50 mV holding potential by patch clamp assay

D(2) dopamine receptor [10] = molecular target: D(2) dopamine receptor (Homo sapiens, UniProt P14416); assay: Antagonist activity at dopamine D2 receptor long isoform (unknown origin) expressed in HEK293 cells assessed as inhibition of dopamine-induced calcium flux at 10 uM after 15 mins by calcium 4-dye based FLIPR assay relative to control; type: functional, cell-based
Rattus norvegicus [11] = assay: Cognitive enhancing effect in Sprague-Dawley rat assessed as effect on total exploration time for familiar objects in acquisition trial at 0.2 mg/kg, po administered 1 hr measured for 3 mins by novel object recognition test; type: functional, organism-based
Mus musculus [12] = species: Mus musculus; assay: animal or person; conditions: Kunming, po
Description: Antipsychotic activity in po dosed Kunming mouse assessed as reduction in MK-801-induced hyperactivity pretreated for 60 mins followed by MK-801 challenge measured for 90 mins

Mus musculus [13] = assay: Induction of catalepsy in po dosed Kunming mouse measured after 60 secs; type: organism-based; conditions: in vivo, 1 min
Mus musculus [14] = species: Mus musculus; assay: animal or person; conditions: Kunming, po; remark: listed apart in the source
Description: Antipsychotic activity in po dosed Kunming mouse assessed as reduction in apomorphine-induced climbing pretreated for 30 mins followed by apomorphine injection measured at 10 to 30 mins post dose

Rattus norvegicus [15] = assay: Antipsychotic activity in po dosed Sprague-Dawley rat assessed as reduction in conditioned avoidance response measured at 90 mins post single dose; type: functional; conditions: 1.5 h
Mus musculus [16] = assay: Induction of weight gain in Kunming mouse at 0.03 to 0.27 mg/kg, po administered for 28 days measured every day during compound dosing; type: organism-based; conditions: in vivo, 672 h
Rattus norvegicus [17] = assay: Cognitive enhancing effect in Sprague-Dawley rat assessed as effect on total exploration time for familiar objects in acquisition trial at 0.3 mg/kg, po administered 1 hr measured for 3 mins by novel object recognition test; type: functional, organism-based
[18] = Therapeutic index, ratio of ED50 for catalepsy in Kunming mouse to ED50 for MK-801-induced hyperactivity in Kunming mouse; type: toxicity, organism-based; conditions: in vivo, read-out: Ratio ED50
[19] = Therapeutic index, ratio of ED50 for catalepsy in Kunming mouse to ED50 for apomorphine-induced climbing in Kunming mouse; type: toxicity, organism-based; conditions: in vivo, read-out: Ratio ED50

D(3) dopamine receptor, sequence (P19020 whole entry): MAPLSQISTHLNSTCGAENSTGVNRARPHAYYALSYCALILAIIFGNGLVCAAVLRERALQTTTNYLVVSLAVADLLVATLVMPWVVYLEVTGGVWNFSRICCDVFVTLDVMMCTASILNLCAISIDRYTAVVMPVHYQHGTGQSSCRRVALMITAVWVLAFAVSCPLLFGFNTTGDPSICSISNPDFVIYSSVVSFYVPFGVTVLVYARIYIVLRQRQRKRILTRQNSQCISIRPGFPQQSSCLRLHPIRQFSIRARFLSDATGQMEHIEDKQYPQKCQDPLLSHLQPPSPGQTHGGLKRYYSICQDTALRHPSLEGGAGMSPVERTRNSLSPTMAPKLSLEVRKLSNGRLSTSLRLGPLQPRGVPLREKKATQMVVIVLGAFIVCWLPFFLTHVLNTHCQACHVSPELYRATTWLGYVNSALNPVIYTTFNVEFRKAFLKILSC
D(2) dopamine receptor (Rattus norvegicus, UniProt P61169), sequence (P61169 whole entry): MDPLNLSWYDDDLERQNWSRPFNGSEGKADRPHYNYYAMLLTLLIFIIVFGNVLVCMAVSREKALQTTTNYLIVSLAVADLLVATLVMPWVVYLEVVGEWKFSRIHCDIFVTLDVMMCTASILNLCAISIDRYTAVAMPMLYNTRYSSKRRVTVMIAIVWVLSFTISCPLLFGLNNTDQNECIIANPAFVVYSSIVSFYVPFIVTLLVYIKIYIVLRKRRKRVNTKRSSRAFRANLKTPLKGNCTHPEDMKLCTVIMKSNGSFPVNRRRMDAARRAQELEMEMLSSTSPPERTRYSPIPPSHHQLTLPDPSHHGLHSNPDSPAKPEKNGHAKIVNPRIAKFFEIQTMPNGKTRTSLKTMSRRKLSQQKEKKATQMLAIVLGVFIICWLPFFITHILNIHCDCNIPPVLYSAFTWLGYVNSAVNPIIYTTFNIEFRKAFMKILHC
Histamine H1 receptor, sequence (P31389 whole entry): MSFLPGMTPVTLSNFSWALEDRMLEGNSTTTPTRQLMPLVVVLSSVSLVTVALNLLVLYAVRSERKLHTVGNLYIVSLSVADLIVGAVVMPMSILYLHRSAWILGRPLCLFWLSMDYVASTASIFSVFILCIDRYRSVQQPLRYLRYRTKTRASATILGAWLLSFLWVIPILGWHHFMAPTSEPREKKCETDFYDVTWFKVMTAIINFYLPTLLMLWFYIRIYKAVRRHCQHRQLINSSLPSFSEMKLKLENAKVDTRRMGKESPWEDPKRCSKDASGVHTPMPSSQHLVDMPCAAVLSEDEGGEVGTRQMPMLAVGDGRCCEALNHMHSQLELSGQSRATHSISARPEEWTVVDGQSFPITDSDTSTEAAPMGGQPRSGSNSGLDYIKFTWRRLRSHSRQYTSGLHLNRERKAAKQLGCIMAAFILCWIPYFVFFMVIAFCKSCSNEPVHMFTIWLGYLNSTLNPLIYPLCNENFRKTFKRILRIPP
5-hydroxytryptamine receptor 2A (Rattus norvegicus, UniProt P14842), sequence (P14842 whole entry): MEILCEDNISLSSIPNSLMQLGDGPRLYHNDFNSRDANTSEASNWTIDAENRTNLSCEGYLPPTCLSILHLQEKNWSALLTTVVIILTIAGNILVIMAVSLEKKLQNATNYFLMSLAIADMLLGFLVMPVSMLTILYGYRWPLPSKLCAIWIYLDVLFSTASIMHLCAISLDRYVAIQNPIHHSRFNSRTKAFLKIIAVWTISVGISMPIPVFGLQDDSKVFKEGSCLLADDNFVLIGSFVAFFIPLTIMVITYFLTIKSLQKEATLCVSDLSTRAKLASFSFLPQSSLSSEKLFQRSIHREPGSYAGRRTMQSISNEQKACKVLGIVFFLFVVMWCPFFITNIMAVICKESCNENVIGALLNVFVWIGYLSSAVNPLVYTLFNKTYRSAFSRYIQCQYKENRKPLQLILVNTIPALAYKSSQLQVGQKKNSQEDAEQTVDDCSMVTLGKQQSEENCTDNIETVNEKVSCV
T3 sequence (P50406 whole entry): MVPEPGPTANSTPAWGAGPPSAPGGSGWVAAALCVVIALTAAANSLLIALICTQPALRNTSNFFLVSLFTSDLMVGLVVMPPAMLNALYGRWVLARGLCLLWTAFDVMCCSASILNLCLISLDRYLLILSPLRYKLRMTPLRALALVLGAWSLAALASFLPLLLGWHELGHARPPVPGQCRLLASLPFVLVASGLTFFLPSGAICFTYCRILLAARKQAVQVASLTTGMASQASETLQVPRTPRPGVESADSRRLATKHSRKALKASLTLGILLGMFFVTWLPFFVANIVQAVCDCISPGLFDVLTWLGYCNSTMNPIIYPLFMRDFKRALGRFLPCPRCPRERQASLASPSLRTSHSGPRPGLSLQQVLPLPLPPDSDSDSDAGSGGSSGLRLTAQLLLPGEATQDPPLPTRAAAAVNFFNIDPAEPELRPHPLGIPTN
D(2) dopamine receptor (Homo sapiens, UniProt P14416), sequence (P14416 whole entry, canonical isoform): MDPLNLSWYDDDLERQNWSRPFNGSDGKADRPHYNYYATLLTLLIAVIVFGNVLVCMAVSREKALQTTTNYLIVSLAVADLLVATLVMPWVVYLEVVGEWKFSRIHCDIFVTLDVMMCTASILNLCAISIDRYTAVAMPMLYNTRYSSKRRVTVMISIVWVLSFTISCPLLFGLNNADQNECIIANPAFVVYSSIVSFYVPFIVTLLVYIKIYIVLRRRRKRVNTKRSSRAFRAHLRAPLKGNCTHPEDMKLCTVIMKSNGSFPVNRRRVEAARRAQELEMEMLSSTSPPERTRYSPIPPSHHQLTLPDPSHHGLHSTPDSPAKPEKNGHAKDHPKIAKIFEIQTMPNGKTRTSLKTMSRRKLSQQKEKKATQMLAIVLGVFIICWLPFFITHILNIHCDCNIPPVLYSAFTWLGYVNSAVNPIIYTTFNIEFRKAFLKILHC
5-hydroxytryptamine receptor 2A (Homo sapiens, UniProt P28223), sequence (P28223 whole entry): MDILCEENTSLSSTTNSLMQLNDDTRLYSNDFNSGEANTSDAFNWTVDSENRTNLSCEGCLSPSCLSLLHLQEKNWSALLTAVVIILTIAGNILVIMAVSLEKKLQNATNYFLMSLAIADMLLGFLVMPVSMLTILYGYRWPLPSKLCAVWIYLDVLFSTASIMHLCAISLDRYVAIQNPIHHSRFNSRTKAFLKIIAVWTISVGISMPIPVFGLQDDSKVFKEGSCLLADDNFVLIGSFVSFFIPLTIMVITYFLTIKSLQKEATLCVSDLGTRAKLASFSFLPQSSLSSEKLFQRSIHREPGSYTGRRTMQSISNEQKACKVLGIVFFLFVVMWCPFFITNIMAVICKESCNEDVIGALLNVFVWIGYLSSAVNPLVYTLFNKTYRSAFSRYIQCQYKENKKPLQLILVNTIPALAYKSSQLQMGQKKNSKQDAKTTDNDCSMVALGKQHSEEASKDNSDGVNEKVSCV
Voltage-gated inwardly rectifying potassium channel KCNH2, sequence (Q12809 whole entry, canonical isoform): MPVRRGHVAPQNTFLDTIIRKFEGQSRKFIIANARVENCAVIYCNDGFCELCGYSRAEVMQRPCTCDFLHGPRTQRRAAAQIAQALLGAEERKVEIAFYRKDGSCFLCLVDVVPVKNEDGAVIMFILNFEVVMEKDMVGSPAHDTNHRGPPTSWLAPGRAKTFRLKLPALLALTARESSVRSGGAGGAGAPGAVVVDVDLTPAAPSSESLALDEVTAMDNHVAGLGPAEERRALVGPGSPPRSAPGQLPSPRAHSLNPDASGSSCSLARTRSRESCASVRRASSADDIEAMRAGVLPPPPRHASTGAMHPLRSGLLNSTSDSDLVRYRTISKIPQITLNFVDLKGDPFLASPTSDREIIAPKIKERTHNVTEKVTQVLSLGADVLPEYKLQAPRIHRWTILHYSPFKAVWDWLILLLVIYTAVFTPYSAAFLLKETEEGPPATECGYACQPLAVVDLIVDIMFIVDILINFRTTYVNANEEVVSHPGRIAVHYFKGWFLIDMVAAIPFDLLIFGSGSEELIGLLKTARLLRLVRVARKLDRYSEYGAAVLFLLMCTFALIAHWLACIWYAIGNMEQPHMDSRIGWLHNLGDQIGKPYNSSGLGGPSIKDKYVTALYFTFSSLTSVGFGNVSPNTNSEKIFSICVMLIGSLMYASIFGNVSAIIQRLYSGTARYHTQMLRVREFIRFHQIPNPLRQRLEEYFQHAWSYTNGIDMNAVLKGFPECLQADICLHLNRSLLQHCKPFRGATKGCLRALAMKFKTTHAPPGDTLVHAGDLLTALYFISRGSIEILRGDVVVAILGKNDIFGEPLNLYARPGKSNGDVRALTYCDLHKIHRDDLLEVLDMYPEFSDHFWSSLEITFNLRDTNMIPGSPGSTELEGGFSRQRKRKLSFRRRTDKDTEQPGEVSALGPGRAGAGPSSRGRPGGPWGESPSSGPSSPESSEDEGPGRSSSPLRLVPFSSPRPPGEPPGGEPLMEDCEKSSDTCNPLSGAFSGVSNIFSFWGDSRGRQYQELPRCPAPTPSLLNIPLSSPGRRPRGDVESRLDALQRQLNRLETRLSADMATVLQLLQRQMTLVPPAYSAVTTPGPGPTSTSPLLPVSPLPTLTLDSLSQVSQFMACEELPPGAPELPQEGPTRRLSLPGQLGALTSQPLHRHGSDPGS

SMILES	Ki [4]	Ki (D(2) dopamine receptor [5])	Ki [6]	also measured
O=C1CCc2cc(CCCCN3CCC(c4noc5cc(F)ccc45)CC3)cc3c2N1CC3	19.3 nM	9.9 nM	11.7 nM	Ki (Histamine H1 receptor): 712 nM; Ki [1]: 99.3 nM; Ki [2]: 540 nM; Ki [3]: 17.7 nM; Ki (D(3) dopamine receptor): 54.9 nM
O=C(CCCN1CCC(c2noc3cc(F)ccc23)CC1)c1cc2c3c(c1)CCN3C(=O)CC2	9.9 nM	10.3 nM	12 nM	Ki (Histamine H1 receptor): 421 nM; Ki [1]: 491.3 nM; Ki [2]: 610 nM; Ki [3]: 241 nM; Ki (D(3) dopamine receptor): 61.3 nM
NCCc1c[nH]c2ccc(O)cc12				Activity [7]: 94.5%; Activity [8]: 98%
O=C1CCc2cc(C(O)CCCCN3CCC(c4noc5cc(F)ccc45)CC3)cc3c2N1CC3 (stereo not drawn)	0.4 nM	8.4 nM	12 nM	Ki (Histamine H1 receptor): 43.5 nM; Ki [1]: 596 nM; Ki [2]: 33.7 nM; Ki [3]: 29.5 nM; Ki (D(3) dopamine receptor): 116 nM
O=C1CCc2cc(C(O)CCCN3CCC(c4noc5cc(F)ccc45)CC3)cc3c2N1CC3 (stereo not drawn)	69.5 nM		22.5 nM	Ki (Histamine H1 receptor): 339 nM; IC50 [9]: 1900 nM; Ki [1]: 339 nM; Ki [2]: 742 nM; Ki [3]: 6.36 nM; Ki (D(3) dopamine receptor): 45.4 nM
CN1CCc2cc(Cl)c(O)cc2[C@@H](c2ccccc2)C1				inhibition (D(2) dopamine receptor [10]): 99%
Cc1nc2n(c(=O)c1CCN1CCC(c3noc4cc(F)ccc34)CC1)CCCC2 [RISPERIDONE]				Activity (Rattus norvegicus [11]): inactive; ED50 (Mus musculus [12]): 0.011 mg/kg; ED50 (Mus musculus [13]): 0.51 mg/kg; ED50 (Mus musculus [14]): 0.28 mg/kg; ED50 (Rattus norvegicus [15]): 0.52 mg/kg; Activity (Mus musculus [16]): Toxic
O=C(CCN1CCC(c2nc3ccccc3s2)CC1)c1cc2c3c(c1)CCC(=O)N3CCC2	173 nM	861 nM	392 nM	
O=C(CCCCCN1CCC(c2noc3cc(F)ccc23)CC1)c1cc2c3c(c1)CCN3C(=O)CC2	34.7 nM	89.1 nM	168 nM	
O=C(CCCN1CCN(c2nsc3ccccc23)CC1)c1cc2c3c(c1)CCC(=O)N3CCC2	87.9 nM	91.4 nM	153 nM	
CCN(C)C(=O)Oc1cccc([C@H](C)N(C)C)c1				Activity (Rattus norvegicus [17]): Active
O=C(CCN1CCN(c2ncccn2)CC1)c1cc2c3c(c1)CCC(=O)N3CCC2	557 nM	> 2000 nM	1970 nM	
O=C(CCN1CCC(c2noc3cc(F)ccc23)CC1)c1cc2c3c(c1)CCN3C(=O)CC2	17.4 nM	19.7 nM	16.4 nM	
O=C(CCN1CCN(c2cccc(Cl)c2Cl)CC1)c1cc2c3c(c1)CCN3C(=O)CC2	92.5 nM	188 nM	81.6 nM	
O=C1CCc2cc(CCCCN3CCN(c4cccc(Cl)c4Cl)CC3)cc3c2N1CCC3	97.8 nM	394 nM	194 nM	
O=C(CCCN1CCN(c2cccc(Cl)c2Cl)CC1)c1cc2c3c(c1)CCN3C(=O)CC2	37.8 nM	104 nM	53.9 nM	
O=C(CCCN1CCN(c2cccc(Cl)c2Cl)CC1)c1cc2c3c(c1)CCC(=O)N3CCC2	79.8 nM	283 nM	149 nM	
O=C1CCc2cc(C(O)CCN3CCC(c4noc5cc(F)ccc45)CC3)cc3c2N1CC3 (stereo not drawn)	59.6 nM	19.6 nM	29.3 nM	
O=C(CCCN1CCC(O)(c2ccc(Cl)cc2)CC1)c1ccc(F)cc1 [HALOPERIDOL]				ED50 (Mus musculus [12]): 0.16 mg/kg; selectivity ratio [18]: 0.75; ED50 (Mus musculus [13]): 0.12 mg/kg; ED50 (Mus musculus [14]): 0.11 mg/kg; selectivity ratio [19]: 1.09
Cc1cccc(N2CCN(CCCC(=O)c3cc4c5c(c3)CCC(=O)N5CCC4)CC2)c1C	58.9 nM	185 nM	169 nM	
O=C(CCCN1CCC(c2noc3cc(F)ccc23)CC1)c1cc2c3c(c1F)CCC(=O)N3CC2	17.9 nM	19.2 nM	25.3 nM	
